Results on 27 compounds are retold here after US7211572B2 (Japan Tobacco Inc., priority 2003, dated 2007).

Usually IC50 stands for the concentration needed to halve the response being measured.

Molecules are shown by their SMILES. Structures can show the parent of a compound that is named as a salt.

The experiment has as its target T1, HIV integrase (Human immunodeficiency virus type 1 group M subtype B, UniProt P12497, F1332H).
T1 construct: HIV integrase full length gene; made in house; host or cells: Escherichia coli BL21(DE3), plasmid pET21a-INH
Nature of the experiment: Determination of enzyme (HIV integrase) inhibitory activity. The format is biochemical. The conditions noted are these: recombinant HIV integrase (F185H), strand transfer ELISA, absorbance at 450 nm. From the text:
The following explains evaluation methods of the HIV integrase inhibitory activity of the compound of the present invention.
(i) Construction of Recombinant Integrase Gene Expression System
The 185th phenylalanine of HIV integrase full length gene (J. Virol., 67, 425–437 (1993)) was substituted by histidine and inserted into the restriction enzyme NdeI and XhoI sites of plasmid pET21a(+) (Novagen), whereby an integrase expression vector pET21a-INH was constructed.
(ii) Production and Purification of Integrase Protein
Escherichia coli recombinant BL21(DE3) transformed with plasmid pET21a-INH obtained in (i) was shake cultured at 37° C. in a liquid medium containing ampicillin. When the culture reached the logarithmic growth phase, isopropyl-β-D-thiogalactopyranoside was added to promote expression of integrase gene. The culture was continued for 3 hr to promote accumulation of the integrase protein. The recombinant E. coli was collected in pellets by centrifugal separation and preserved at −80° C.
The E. coli was suspended in Lysis buffer (20 mM HEPES (pH 7.5), 5 mM DTT, 10 mM CHAPS, 10% glycerol) containing 1M sodium chloride and subjected to repeat pressurization and depressurization for rupture, and centrifugal separation at 4° C., 40,000×g, 60 min to recover a water-soluble fraction (supernatant). This was diluted 10-fold with Lysis buffer free of sodium chloride, mixed with SP-Sepharose (Pharmacia Corporation) and stirred at 4° C. for 30 min to allow adsorption of integrase protein to the resin. The resin was washed with Lysis buffer containing 100 mM sodium chloride and the integrase protein was eluted with Lysis buffer containing 1M sodium chloride.
The eluted integrase protein solution was applied to a Superdex 75 (Pharmacia Corporation) column for gel filtration. The protein was eluted with Lysis buffer containing 1M sodium chloride.
The obtained fractions of the integrase protein were collected and preserved at −80° C.
(iii) Preparation of DNA Solution
The following DNA synthesized by Greiner was dissolved in TE buffer (10 mM Tris-hydrochloric acid (pH 8.0), 1 mM EDTA) and mixed with donor DNA, target DNA, and each complementary strand (+ and − strands) to 1 μM. The mixture was heated at 95° C. for 5 min, 80° C. for 10 min, 70° C. for 10 min, 60° C. for 10 min, 50° C. for 10 min and 40° C. for 10 min and preserved at 25° C. to give a double stranded DNA, which was used for the test.
Donor DNA (− strand having biotin attached to the 5′ terminal)
(iv) Determination of Enzyme (HIV Integrase) Inhibitory Activity
The donor DNA was diluted with TE buffer to 10 nM, of which 50 μl was added to each well of streptavidin-coated microtiter plate (Roche) and allowed to adsorb at 37° C. for 60 min. The DNA was washed with phosphate buffer (Dulbecco PBS, Sanko Junyaku Co., Ltd.) containing 0.1% Tween 20 and phosphate buffer. Then, a reaction mixture (70 μl) having the following composition, a test substance (10 μl) diluted with the reaction mixture and 100 μg/ml integrase protein (10 μl) were added to each well and reacted at 37° C. for 60 min.
Composition of the reaction mixture: 30 mM MOPS (3-morpholinopropanesulfonic acid), 5 mM magnesium chloride, 3 mM DTT (dithiothreitol), 0.1 mg/ml BSA (bovine serum albumin), 5% glycerol, 10% DMSO (dimethyl sulfoxide), 0.01% Tween 20.
Then, 50 nM target DNA (10 μl) was added, reacted at 37° C. for 10 min and washed with phosphate buffer containing 0.1% Tween 20 to stop the reaction.
Then, 100 mU/ml peroxidase labeled anti-digoxigenin antibody solution (Roche, 100 μl) was added, and the mixture was reacted at 30° C. for 60 min, followed by washing with phosphate buffer containing 0.1% Tween 20.
A peroxidase color solution (Bio Rad, 100 μl) was added and allowed to react at room temperature for 4 min. The color reaction was stopped by adding 1N sulfuric acid (100 μl). The absorbance at 450 nm was measured. […]
A general note: ELISA stands for enzyme-linked immunosorbent assay.
As to `O=C(NC(Cc1ccccc1)c1ccccc1)c1cn2c(c(O)c1=O)C(=O)N(Cc1cccc(Cl)c1)CC2` (stereo not drawn) [Example 331, N-(1,2-diphenylethyl)-2-(3-chlorobenzyl)-9-hydroxy-1,8-dioxo-1,3,4,8-tetrahydro-2H-pyrido[1,2-a]pyrazine-7-carboxamide], the IC50 was 10 to 100 nM.
As to `O=c1c(O)c2c(=O)n(Cc3cccc(Cl)c3)ccn2c2ccccc12` [Example 99, 3-(3-chlorobenzyl)-5-hydroxy-3H-pyrazino[1,2-a]quinoline-4,6-dione hydrochloride], the IC50 fell in the range of 10 to 100 nM.
In the case of `O=C1c2c(O)c(=O)c(-c3ccncn3)cn2CCN1Cc1cccc(Cl)c1` [Example 268, 2-(3-chlorobenzyl)-9-hydroxy-7-(pyrimidin-4-yl)-3,4-dihydro-2H-pyrido[1,2-a]pyrazine-1,8-dione] it was less than 10 nM; in that of `CNC(=O)c1cn2c(c(O)c1=O)C(=O)N(Cc1cccc(Cl)c1F)CC2` [Example 361, N-methyl-2-(3-chloro-2-fluorobenzyl)-9-hydroxy-1,8-dioxo-1,3,4,8-tetrahydro-2H-pyrido[1,2-a]pyrazine-7-carboxamide], 10 to 100 nM; in that of `COc1ccnc(CNC(=O)c2cn3c(c(O)c2=O)C(=O)N(Cc2ccc(F)cc2)CC3)n1` [Example 426, N-(4-methoxypyrimidin-2-ylmethyl)-2-(4-fluorobenzyl)-9-hydroxy-1,8-dioxo-1,3,4,8-tetrahydro-2H-pyrido[1,2-a]pyrazine-7-carboxamide hydrochloride], 10 to 100 nM.
For the compound `CCN(CC)C(=O)c1cn2ccn(Cc3cccc(Cl)c3)c(=O)c2c(O)c1=O` [Example 156, N,N-diethyl-2-(3-chlorobenzyl)-9-hydroxy-1,8-dioxo-1,8-dihydro-2H-pyrido[1,2-a]pyrazine-7-carboxamide], the IC50 lay in the range of 10 to 100 nM.
Take `O=C1c2c(O)c(=O)c(-c3nccs3)cn2CCN1Cc1ccc(Cl)cc1` [Example 293, 2-(4-chlorobenzyl)-9-hydroxy-7-(thiazol-2-yl)-3,4-dihydro-2H-pyrido[1,2-a]pyrazine-1,8-dione]: the IC50 is 10 to 100 nM.
In the case of `CNC(=O)c1cn2c(c(O)c1=O)C(=O)N(Cc1ccc(F)cc1)CC2` [Example 379], the half-maximal inhibitory concentration (IC50) lay within 100 to 1000 nM.
In the case of `O=C1c2c(O)c(=O)ccn2CCN1CCCc1ccccc1` [Example 50, 9-hydroxy-2-(3-phenylpropyl)-3,4-dihydro-2H-pyrido[1,2-a]pyrazine-1,8-dione] it was 10 to 100 nM.
With `O=C(O)C1CN(Cc2ccc(Cl)c(Cl)c2)C(=O)c2c(O)c(=O)ccn21` (stereo not drawn) [Example 22, 2-(3,4-dichlorobenzyl)-9-hydroxy-1,8-dioxo-1,3,4,8-tetrahydro-2H-pyrido[1,2-a]pyrazine-4-carboxylic acid], the IC50 lay within 10 to 100 nM.
Take `O=c1c(-c2ccc(Cl)cc2)cn2ccn(Cc3cccc(Cl)c3)c(=O)c2c1O` [Example 113, 2-(3-chlorobenzyl)-7-(4-chlorophenyl)-9-hydroxy-2H-pyrido[1,2-a]pyrazine-1,8-dione hydrochloride]: the IC50 is 10 to 100 nM.
Regarding `O=C1c2c(O)c(=O)c(-c3nccs3)cn2CCN1Cc1ccc(F)c(Cl)c1` [Example 225, 2-(3-chloro-4-fluorobenzyl)-9-hydroxy-7-(thiazol-2-yl)-3,4-dihydro-2H-pyrido[1,2-a]pyrazine-1,8-dione], the IC50 is less than 10 nM.
`CNC(=O)c1cn2ccn(Cc3ccc(F)cc3)c(=O)c2c(O)c1=O` [Example 253, N-methyl-2-(4-fluorobenzyl)-9-hydroxy-1,8-dioxo-1,8-dihydro-2H-pyrido[1,2-a]pyrazine-7-carboxamide]: the IC50 is less than 10 nM.
In the case of `O=c1c(-c2ccncn2)cn2ccn(Cc3ccc(F)c(Cl)c3)c(=O)c2c1O` [Example 395, 2-(3-chloro-4-fluorobenzyl)-9-hydroxy-7-(pyrimidin-4-yl)-2H-pyrido[1,2-a]pyrazine-1,8-dione hydrochloride] it was less than 10 nM.
For `NC(=O)c1cn2ccn(Cc3cccc(Cl)c3)c(=O)c2c(O)c1=O` [Example 167, 2-(3-chlorobenzyl)-9-hydroxy-1,8-dioxo-1,8-dihydro-2H-pyrido[1,2-a]pyrazine-7-carboxamide], the IC50 is 10 to 100 nM.
As to `CS(=O)(=O)c1cn2ccn(Cc3cccc(Cl)c3)c(=O)c2c(O)c1=O` [Example 246, 2-(3-chlorobenzyl)-9-hydroxy-7-methanesulfonyl-2H-pyrido[1,2-a]pyrazine-1,8-dione], the IC50 was in the range of 10 to 100 nM.
In the case of `CC(=O)Nc1cn2ccn(CCCc3c(F)cccc3Cl)c(=O)c2c(O)c1=O` [Example 324, N-{2-[3-(2-chloro-6-fluorophenyl)propyl]-9-hydroxy-1,8-dioxo-1,8-dihydro-2H-pyrido[1,2-a]pyrazin-7-yl]acetamide] it was 10 to 100 nM; in that of `O=C(Nc1cn2ccn(Cc3cccc(Cl)c3)c(=O)c2c(O)c1=O)C1CCCC1` [Example 274, N-[2-(3-chlorobenzyl)-9-hydroxy-1,8-dioxo-1,8-dihydro-2H-pyrido[1,2-a]pyrazin-7-yl)cyclopentanecarboxamide], 10 to 100 nM; in that of `COCCNC(=O)c1cn2ccn(Cc3ccc(F)cc3)c(=O)c2c(O)c1=O` [Example 322, N-(2-methoxyethyl)-2-(4-fluorobenzyl)-9-hydroxy-1,8-dioxo-1,8-dihydro-2H-pyrido[1,2-a]pyrazine-7-carboxamide], 10 to 100 nM.
`O=c1ccn2c(CCCO)cn(Cc3ccc(Cl)c(Cl)c3)c(=O)c2c1O` [Example 431, 2-(3,4-dichlorobenzyl)-9-hydroxy-4-(3-hydroxypropyl)-2H-pyrido[1,2-a]pyrazine-1,8-dione]: the IC50 fell in the range of 10 to 100 nM.
In the case of `O=c1c(-c2ccncn2)cn2ccn(Cc3cccc(Cl)c3F)c(=O)c2c1O` [Example 342, 2-(3-chloro-2-fluorobenzyl)-9-hydroxy-7-(pyrimidin-4-yl)-2H-pyrido[1,2-a]pyrazine-1,8-dione trifluoroacetate] it was less than 10 nM; in that of `O=C1c2c(O)c(=O)c(-c3nccs3)cn2CCN1Cc1cccc(F)c1` [Example 308, 2-(3-fluorobenzyl)-9-hydroxy-7-(thiazol-2-yl)-3,4-dihydro-2H-pyrido[1,2-a]pyrazine-1,8-dione], 10 to 100 nM; in that of `O=c1ccn2ccn(Cc3ccc(Cl)cc3O)c(=O)c2c1O` [Example 224, 2-(4-chloro-2-hydroxybenzyl)-9-hydroxy-2H-pyrido[1,2-a]pyrazine-1,8-dione hydrochloride], 10 to 100 nM.
Take `O=c1c(-c2nccs2)cn2ccn(Cc3ccc(F)cc3)c(=O)c2c1O` [Example 252, 2-(4-fluorobenzyl)-9-hydroxy-7-(thiazol-2-yl)-2H-pyrido[1,2-a]pyrazine-1,8-dione hydrochloride]: the IC50 is less than 10 nM.
As for `O=C(c1cn2ccn(Cc3cccc(Cl)c3)c(=O)c2c(O)c1=O)N1CCOCC1` [Example 185, 2-(3-chlorobenzyl)-9-hydroxy-7-(morpholine-4-carbonyl)-2H-pyrido[1,2-a]pyrazine-1,8-dione], the figure is 10 to 100 nM.
In the case of `Cn1ncnc1-c1cn2c(c(O)c1=O)C(=O)N(Cc1ccc(F)c(Cl)c1)CC2` [Example 343, 2-(3-chloro-4-fluorobenzyl)-9-hydroxy-7-(2-methyl-2H-1,2,4-triazol-3-yl)-3,4-dihydro-2H-pyrido[1,2-a]pyrazine-1,8-dione] it was less than 10 nM.
In the case of `CC(C)C(=O)c1cn2c(c(O)c1=O)C(=O)N(Cc1cccc(Cl)c1)CC2` [Example 337, 2-(3-chlorobenzyl)-9-hydroxy-7-isobutyryl-3,4-dihydro-2H-pyrido[1,2-a]pyrazine-1,8-dione] it was less than 10 nM.
